Reference: patent US12180187B2, “1-phenyl-5-azinylpyrazolyl-3-oxyalkyl acids and their use for controlling unwanted plant growth” (BAYER AKTIENGESELLSCHAFT, priority 2019, dated 2024)

Tests used:
ECHCG [1] = experiment: Post-emergence action at 320 g/ha against ECHCG; format: in vivo, Echinochloa crus-galli; settings: dosage 320 g/ha, visual rating about 3 weeks after treatment vs untreated controls (100% = plants died)
Method in brief: (§1)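 Visual % activity vs untreated controls (0% = like control, 100% = plants dead), scored ~3 wk after treatment. Plants were grown in sandy loam in a greenhouse and sprayed on green parts at the one-leaf stage (2–3 wk post-sowing). Spray: WP or EC in water, 0.5% additive, 600 l/ha.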

VIOTR [2] = experiment: Pre-emergence action at 320 g/ha against VIOTR; format: in vivo, Viola tricolor; settings: dosage 320 g/ha
Method in brief: (§2)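 Visual scoring in percent against untreated controls, about 3 weeks after treatment, where 100% means dead plants and 0% means no difference. Compounds were applied as aqueous suspension or emulsion (WP or EC, plus 0.5% additive) onto soil covering freshly sown seeds, at 600 l/ha water.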

SETVI = experiment: Post-emergence action at 320 g/ha against SETVI; format: in vivo, Setaria viridis; settings: visual rating about 3 weeks after treatment vs untreated controls
Method in brief: as §1

AVEFA = experiment: Post-emergence action at 320 g/ha against AVEFA; format: in vivo; settings: visual rating about 3 weeks after treatment vs untreated controls
Method in brief: as §1

ALOMY = experiment: Pre-emergence action against ALOMY, 1280 g/ha; format: in vivo, Alopecurus myosuroides; settings: visual scoring after about 3 weeks vs untreated controls, 100% = plants have died, 0% = like control plants
Method in brief: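 Each pot was doubly sown in sandy loam and covered, then its soil surface was treated with compound suspension or emulsion containing 0.5% additive at 600 L/ha water. Plants grew in a greenhouse; effect was rated visually as percentages versus controls after about 3 weeks.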

AMARE = experiment: Post-emergence action against AMARE, 1.28 kg/ha; format: in vivo, Amaranthus retroflexus; settings: dosage 1280 g/ha, visual rating about 3 weeks after treatment vs untreated controls (100% = plants died)
Method in brief: (§3)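 Greenhouse-grown weeds (sandy loam, twin-sown pots) were treated 2–3 weeks post-sowing at one leaf. The spray was an aqueous WP/EC preparation plus 0.5% additive, applied at 600 L/ha. Scoring was visual at ~3 weeks, 0–100% versus untreated controls.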

ABUTH [3] = experiment: Post-emergence action at 320 g/ha against ABUTH; format: in vivo, Abutilon theophrasti; settings: visual rating about 3 weeks after treatment vs untreated controls
From the text: Accordingly, the compounds of the invention have good herbicidal action against a broad spectrum of weed grasses and broad-leaved weeds and are therefore suitable for controlling unwanted vegetation by the post-emergence method. • b) Seeds of monocotyledonous and dicotyledonous weeds and crop plants are placed in sandy loam in plastic or organic planting pots, covered with soil and cultivated in a greenhouse under controlled growth conditions. 2 to 3 weeks after sowing, the test plants are treated at the one-leaf stage. The compounds of the invention, formulated in the form of wettable powders (WP) or as emulsion concentrates (EC), are then sprayed onto the green parts of the plants as aqueous suspension or emulsion with addition of 0.5% additive at a water application rate of 600 l/ha (converted). After the test plants have been kept in the greenhouse under optimum growth conditions for about 3 weeks, the activity of the preparations is rated visually in comparison to untreated controls. For example, 100% activity=the plants have died, 0% activity=like control plants. Tables 39 to 49 below show the effects of selected compounds of the general formula (I) according to Tables 1 and 2 on various harmful plants and at an application rate corresponding to 320 g/ha, which were obtained by the experimental procedure mentioned above.

DIGSA = experiment: Post-emergence action at 320 g/ha against DIGSA; format: in vivo, Digitaria sanguinalis; settings: dosage 320 g/ha, visual rating about 3 weeks after treatment vs untreated controls (100% = plants died)
Method in brief: as §1

ECHGC = experiment: Pre-emergence action at 320 g/ha against ECHGC; format: in vivo, Echinochloa crus-galli; settings: visual scoring after about 3 weeks vs untreated controls
Method in brief: as §2

ECHCG [4] = experiment: Post-emergence action against ECHCG, 1.28 kg/ha; format: in vivo, Echinochloa crus-galli; settings: dosage 1280 g/ha, visual rating about 3 weeks after treatment vs untreated controls
Method in brief: as §3

VIOTR [5] = experiment: Post-emergence action at 320 g/ha against VIOTR; format: in vivo, Viola tricolor; settings: visual rating about 3 weeks after treatment vs untreated controls
Method in brief: as §1

LOLRI = experiment: Post-emergence action against LOLRI, 1.28 kg/ha; format: in vivo, Lolium rigidum; settings: dosage 1280 g/ha, visual rating about 3 weeks after treatment vs untreated controls
Method in brief: as §3

ABUTH [6] = experiment: Post-emergence action against ABUTH, 1.28 kg/ha; format: in vivo, Abutilon theophrasti; settings: dosage 1280 g/ha, visual rating about 3 weeks after treatment vs untreated controls (100% = plants died)
Method in brief: as §3

PHBPU = experiment: Pre-emergence action at 320 g/ha against PHBPU; format: in vivo; settings: visual scoring after about 3 weeks vs untreated controls
Method in brief: as §2

KCHSC = experiment: Post-emergence action against KCHSC, 1.28 kg/ha; format: in vivo, Bassia scoparia; settings: dosage 1280 g/ha, visual rating about 3 weeks after treatment vs untreated controls (100% = plants died)
Method in brief: as §3

| SMILES | Post-emergence action at 320 g/ha against ECHCG in % (ECHCG [1]) | pest or weed control at 320 g/ha (VIOTR [2]; Viola tricolor, 504 h) | Post-emergence action against SETVI in % (SETVI) | pest or weed control at 320 g/ha (AVEFA; Avena fatua, 504 h) | Pre-emergence action against ALOMY (ALOMY) | Post-emergence action against AMARE (AMARE) | Post-emergence action against ABUTH in % (ABUTH [3]) | pest or weed control at 320 g/ha (DIGSA; Digitaria sanguinalis, 504 h) | Pre-emergence action against ECHGC in % (ECHGC) | Pre-emergence action against VIOTR in % (VIOTR [2]) | Post-emergence action against AVEFA in % (AVEFA) | Post-emergence action against ECHCG (ECHCG [4]) | Post-emergence action at 320 g/ha against DIGSA in % (DIGSA) | Post-emergence action against VIOTR in % (VIOTR [5]) | Post-emergence action against LOLRI (LOLRI) | Post-emergence action against ABUTH (ABUTH [6]) | Pre-emergence action against PHBPU in % (PHBPU) | Post-emergence action against KCHSC (KCHSC) |
| --- | --- | --- | --- | --- | --- | --- | --- | --- | --- | --- | --- | --- | --- | --- | --- | --- | --- | --- |
| C=CCNC(=O)COc1nn(-c2ccccc2F)c(-c2ccc(F)nc2)c1Br [Example X-001, N-Allyl-2-{[4-bromo-1-(2-fluorophenyl)-5-(6-fluoropyridin-3-yl)-1H-pyrazol-3-yl]oxy}acetamide] | 80% | 100% | 90% | 90% | 90% | 90% | 80% | 80% | 100% |  |  |  |  |  |  |  |  |  |
| CS(=O)(=O)NC(=O)COc1nn(-c2ccccc2F)c(-c2ccc(F)nc2)c1Br [Example X-004] | 90% |  | 90% |  | 90% | 100% | 80% |  | 90% | 100% | 90% | 100% | 90% | 80% |  |  |  |  |
| CN(C)S(=O)(=O)NC(=O)COc1nn(-c2ccccc2F)c(-c2ccc(F)nc2)c1Br [Example X-005] | 80% |  | 90% |  | 100% | 100% |  |  | 90% | 100% | 90% | 100% | 90% | 80% | 100% | 90% | 90% |  |
| COC(=O)[C@@H](C)Oc1nn(-c2ccccc2)c(-c2cncnc2)c1Br [VI-013] |  |  | 90% |  | 90% | 90% | 80% |  | 90% | 100% | 80% | 100% | 90% | 90% | 90% | 90% |  | 100% |
| COC(=O)COc1nn(-c2ccccc2)c(-c2ccc(F)nc2)c1Br [VII-018] |  |  | 80% |  | 100% |  | 80% |  | 90% | 90% | 80% | 90% |  | 90% | 90% | 90% |  | 90% |
| COC(=O)C(C)Oc1nn(-c2ccccc2)c(-c2ccc(F)nc2)c1Br (stereo not shown) [VII-026] |  |  | 90% |  | 100% | 90% | 80% |  |  | 100% | 80% | 90% | 90% | 90% |  | 90% |  | 90% |
| O=C(O)COc1nn(-c2ccccc2F)c(-c2ccc(F)nc2)c1I [VII-037] | 80% |  | 80% |  | 100% | 90% |  |  | 80% | 100% | 80% | 90% | 90% | 80% | 90% | 90% |  |  |
| COC(=O)COc1nn(-c2ccccc2F)c(-c2ccc(F)nc2)c1F [VII-040] | 80% |  | 100% |  | 100% | 90% | 90% |  | 90% | 100% | 90% | 100% |  | 90% |  | 90% |  | 90% |
| COC(=O)COc1nn(-c2cc(F)ccc2F)c(-c2ccc(F)nc2)c1Br [VII-089] |  |  |  |  | 100% | 90% |  |  | 80% | 100% | 80% | 90% | 90% |  | 100% | 90% | 80% |  |
| COC(=O)[C@@H](C)Oc1nn(-c2ccccc2F)c(-c2ccnc(F)c2)c1Br [VIII-006] | 90% |  | 90% |  | 100% | 100% |  |  |  | 100% | 80% | 90% |  |  | 100% |  | 90% | 90% |
